Test results published in patent publication US4567169A, “Nitrosourea substituted phosphonates and pharmaceutical use” (priority 1982, dated 1986).

Columns and labels:
[1] = tested on: pyruvic glutamic transaminase; assay: hepatic toxicity (Wroblewski's method), pyruvic glutamic transaminase activity in serum; type: in vivo, Long Evans rats
Description: The hepatic toxicity is assessed according to Wroblewski's method by measuring the pyruvic glutamic transaminase activity contained in the serum from Long Evans rats treated with an intraperitoneal injection of 25 mg/kg of BCNU or with equipotential doses of the compounds according to the invention.

[2] = tested on: tumour-bearing mice (tumorous cells inoculated by intraperitoneal or intramuscular route); assay: capacity to increase the life-span of mice bearing tumorous cells (NCI protocols, Geran et al.); type: in vivo; details: 5 mg/kg
Description: The compounds according to the invention are tested by their capacity to increase the life-span of mice bearing tumorous cells inoculated by intraperitoneal or intramuscular route in accordance with the protocols edicted by the National Cancer Institute (U.S.A.) and published by R. I. GERAN et al. in Cancer Chemotherapy Reports 1972, part III, Vol. 3 (2), 1-87.
Given per os, these compounds increase the life-span of tumor-bearing animals. The rate of effectiveness of the active doses per os over the active dose by intraperitoneal route is greater for the compounds according to the invention than for the reference products (F. SPREAFICO et al. in Nitrosoureas: current status and new developments, A. W. PRESTAYKO et al. editors, 1981, Academic Press (New York); Experimental Evaluation of Antitumor Drugs in the USA and USSR and clinical correlations; National Cancer Institute Monograph No. 55; National Institutes of Health USA 1980).

[3] = tested on: pulmonary metastases; assay: antimetastatic capacity: reduction in number and weight of pulmonary metastases developed after intramuscular inoculation of carcinoma cells; type: in vivo; details: 10 mg/kg as a curative treatment for 9 days
Description: The antimetastatic capacity of the compounds of the present invention is measured by the reduction, compared with untreated animals, in the number and weight of pulmonary metastases developed after intramuscular inoculation of carcinoma cells.

| SMILES | hepatic toxicity ([1]; intraperitoneal injection of 25 mg/kg of BCNU or equipotential doses of the compounds) | long-term survivors [2] | serum pyruvic glutamic transaminase level ([1]; 25 mg/kg, Long Evans rats) | formation of metastases [3] |
| --- | --- | --- | --- | --- |
| O=NN(CCCl)C(=O)NCCCl [BCNU, N-N'-bis(2-chloroethyl)-N-nitrosourea, reference compound] | notable hepatic toxicity | – | – | – |
| CCOP(=O)(OCC)C(C)NC(=O)N(CCCl)N=O (stereo not shown) [Example 4, 1-[N-(2-chloroethyl)-N-nitrosoureido]ethylphosphonic acid diethyl ester] | – | inducing long-term survivors | does not lead to an increase in the enzyme level outside the range usually found in untreated rats | prevents the formation of metastases |
